Results on two molecules are retold here after patent publication US20110046070A1, “GENE EXPRESSION INHIBITOR SELECTIVE FOR MATRIX METALLOPROTEINASE-9 GENE” (priority 2008, published 2011).

Experiment [1] relates to MMP-9 mRNA in MDA-MB-231 cells. Briefly: Real-time RT-PCR assay (mRNA expression assay). To be noted: 48 hours, MDA-MB-231, vs DMSO control, normalized to GAPDH. It counts as cell-based, human. The procedure: MDA-MB-231 cells were treated with each polyamide of the present invention at various concentrations. 48 hours after the treatment, cell fractions were subjected to RNA separation using a TRIzol reagent (Invitrogen Life Technologies, Corp.) according to the manufacturer's manual. RNA was treated with DNase prior to cDNA synthesis. Complementary DNA strands were synthesized by reverse transcription using SuperScript™ First-Strand kit (Invitrogen Life Technologies, Corp.). In real-time RT-PCR (Thermal cycler Dice Real Time system TP800, Takara Bio Inc., Japan), SYBR Premix Ex Taq Kit (Takara Bio Inc.) was used. Primers for HMMP9AP1 (forward, 5′-[…]-3′, SEQ ID NO: 12; reverse 5′-[…]-3′, SEQ ID NO: 13; 236 bp) and internal standard human endogenous glyceraldehyde-3-phosphate dehydrogenase (GADPH; forward, 5′-[…]-3′, SEQ ID NO: 14; reverse, 5′-TGGTGAAGACGCCAGTGGA-3′, SEQ ID NO: 15; 138 bp) were used. Moreover, primers for HMMP9NFKκβ (forward, 5′-[…]-3′, SEQ ID NO: 16; reverse, 5′-[…]-3′, SEQ ID NO: 17; 236 bp) and internal standard human endogenous glyceraldehyde-3-phosphate dehydrogenase (GADPH; forward, 5′-[…]-3′, SEQ ID NO: 18; reverse, 5′-TGGTGAAGACGCCAGTGGA-3′, SEQ ID NO: 19; 138 bp) were used. 25 μl of two-step RT-PCR mixture consists of 12.5 μl of SYBR Premix Ex TAq, 0.5 μl each of forward and reverse primers, 10.5 μl of RNase-free water and 1 μl of template cDNA. The real-time cycle conditions were performed by a reaction system involving 95° C. for 10 seconds, 95° C. for 5 seconds and 60° C. for 30 seconds. The quantification of the MMP-9 gene was normalized by comparison with GAPDH expression.
In general terms: In qPCR the cycle at which signal appears reflects the starting amount.

Experiment [2] concerns MDA-MB-231 cells. In words: Invasion assay into matrigel, MDA-MB-231. The format is cell-based, human. To be noted: 22 hours. How it is done: Cell invasion assay was conducted using a 24-well cell culture BioCoat matrigel invasion chamber (BD Biosciences, Discovery Labware, Bedford, Mass., USA). MDA-MB-231 cells (1×10^3 cells/well) or HeLa cells (1×10^3 cells/well) were suspended in an RPMI1640 or DMEM medium containing 0.1% FBS and added to the upper chamber. An RPMI1640 or DMEM medium containing 5% FBS was added to the lower chamber. Then, the cells were cultured at 37° C. for 22 hours in a 5% CO2 environment. Noninvasive cells remaining on the membrane were wiped off using a cotton swab. Invasion cells were fixed and stained with a Diff-Quik kit. The number of cells invading the membrane was determined in mean±standard deviation from a total of 3 membranes by counting in 10 fields of view per membrane using an optical microscope (200× magnification).
The degradation of constitutive proteins of extracellular matrix is important for the invasion of tumor cells. To evaluate the influence of HMMP9AP1 and HMMP9NFκβ, the MMP9 Py-Im polyamides of the present invention, on the invasion of tumor cells, 5×10^3 MDA-MB-231 cells were incubated with each polyamide at various concentrations for 22 hours. The invasiveness of cells treated with DMSO or each polyamide of the present invention was compared in MDA-MB-231 cells. The DMSO-treated MDA-MB-231 cells remarkably invaded the transparent membrane coated with matrigel. […] In contrast, the cells treated with the HMMP9AP1 or HMMP9NFκβ of the present invention had much lower invasion into the membrane.

Experiment [3] has as its system human breast cancer MDA-MB-231 cells. In words: Wound-healing migration assay, MDA-MB-231. To be noted: 48 hours after the damage, various concentrations, vs DMSO. The format is cell-based. The procedure: A human breast cancer MDA-MB-231 cell strain was used. The cells were cultured at 37° C. in a humid environment containing 5% CO^2 in an RPMI1640 medium (Sigma-Aldrich Corp., St. Louis, Mo., USA) supplemented with 100 μg/ml streptomycin, 100 units/ml penicillin and 10% fetal bovine serum (FBS) (Sigma-Aldrich Corp.). Human uterine cervix cancer HeLa cells were cultured in a Dulbecco's modified Eagle medium (DMEM, Invitrogen Life Technologies, Corp., Carlsbad, Calif.) containing 10% FBS and 2 mM L-glutamine.
To assay cellular migration in the process of wound healing, 3×10^5 cells were inoculated to each well of an 8-well chamber slide, and the cell layer was damaged using a plastic micropipette when the cells reached confluence. The medium and debris were removed by suction, and 100 μl of a fresh medium containing various polyamides was replaced therefor. 48 hours after the damage, the cells were fixed with Diff-Quik solution (SYSMEX INTERNATIONAL REAGENTS CO., LTD., Kobe, Japan), then stained, and photographed using a phase-contrast microscope.

As for `CC(=O)Nc1cn(C)c(C(=O)Nc2cc(C(=O)NCCC(=O)Nc3cn(C)c(C(=O)Nc4cc(C(=O)Nc5cc(C(=O)NCCCC(=O)Nc6cn(C)c(C(=O)Nc7cn(C)c(C(=O)Nc8cc(C(=O)NCCC(=O)Nc9cn(C)c(C(=O)Nc%10cc(C(=O)NCCC(=O)NCCCN(C)C)n(C)c%10)n9)n(C)c8)n7)n6)n(C)c5)n(C)c4)n3)n(C)c2)n1` [HMMP9AP1], the “decrease of the expression level of MMP-9 mRNA” value turned out to be 84% in experiment [1] (0.3 μM), 54% in experiment [1] (1 μM), 38% in experiment [1] (3 μM) and 26% in experiment [1] (10 μM). In addition, the “decrease in invasion compared to the DMSO-treated control” value in experiment [2] (0.3 μM) came out at 90%; in experiment [2] (1 μM), 52%; in experiment [2] (3 μM) it was 44%; in experiment [2] (10 μM), 25.4%. Also, the “migration of MDA-MB-231 cells” value in experiment [3] is “inhibit the migration of MDA-MB-231 cells in a concentration-dependent manner”.

As for `CC(=O)Nc1cc(C(=O)Nc2cc(C(=O)NCCC(=O)Nc3cc(C(=O)Nc4cc(C(=O)NCCCC(=O)Nc5cn(C)c(C(=O)Nc6cn(C)c(C(=O)NCCC(=O)Nc7cc(C(=O)Nc8cc(C(=O)NCCC(=O)NCCCN(C)C)n(C)c8)n(C)c7)n6)n5)n(C)c4)n(C)c3)n(C)c2)n(C)c1` [HMMP9NFκβ], the “decrease of the expression level of MMP-9 mRNA” value in experiment [1] (0.3 μM) was 86%; in experiment [1] (1 μM) it was 68%; in experiment [1] (3 μM), 40%; in experiment [1] (10 μM), 28%. The “decrease in invasion compared to the DMSO-treated control” value in experiment [2] (0.3 μM) worked out at 88%; in experiment [2] (1 μM), 61%; in experiment [2] (3 μM) it was 30%; in experiment [2] (10 μM), 22%. Further, the “migration of MDA-MB-231 cells” value in experiment [3] is “inhibit the migration of MDA-MB-231 cells in a concentration-dependent manner”.
